Experiments:
[1] = system: mRNA; test: IVT capping rate of mRNA by LC-MS after RNase H cleavage; assay type: biochemical
Method: (§1) mRNA IVT reactions were performed using the cap analogs from the examples. Firstly, the required volumes of materials for the system were calculated, and then the samples were added (the IVT reaction system is shown in Table 1). Sterile enzyme-free water was added to the system, and then 10× buffer, NTPs, and the cap analog were sequentially added. The mixture was uniformly mixed and then gently centrifuged, followed by the addition of the nuclease inhibitor, the inorganic pyrophosphatase, the T7 RNA polymerase, and the linearized DNA template. The resulting mixture was thoroughly mixed, then gently centrifuged, and incubated at 37 °C. After 2 h, DNase I (1 U) was added, and the mixture was incubated at 37 °C for another 30 min to remove the DNA template. RNA purification was then performed using a magnetic bead purification method. The purified mRNA was dissolved in sterile enzyme-free water, and then quantitative detection was performed using Nanodrop One. Table 1. IVT reaction system
Liquid chromatography-mass spectrometry (LC-MS) was used to detect the IVT capping rates of mRNAs with different starting cap analogs. Firstly, a labeled (usually biotin-labeled) DNA probe matched with the starting base of the transcribed mRNA product was required to be designed, and streptavidin-labeled magnetic beads were washed, and then incubated with the synthesized DNA probe, mRNA, and 10× RNase H reaction buffer with slow mixing at room temperature for 30 min. Subsequently, 20 µL of RNase H (5 U/µL) was added, and the mixture was incubated at 37 °C for 3 h, with uniform mixing every half hour. After the incubation was completed, the magnetic beads were washed, and then 100 µL of 75% methanol heated to 80 °C was added to the washed magnetic beads. The mixture was heated to 80 °C on a heating plate, held for 3 min, and then placed on a magnetic rack. The supernatant was pipetted and dried at room temperature for 45 min to 10 µL by using an evaporation centrifuge. The sample was then resuspended in 50 µL of 100 µM EDTA/1% MeOH for LC-MS analysis to determine the capping of RNA in the transcription reaction. Since capped and uncapped bases have a distinct difference in molecular weight, the capping rates of mRNA transcription processes initiated with different cap analogs can be determined by utilizing this difference in molecular mass.

[2] = system: mice; test: mRNA translation efficiency in mice: LNP-mRNA by tail vein, luciferase in vivo imaging; conditions: 1 µg LNP-mRNA; for protein expression levels in mice: 24 hours after administration, compared to Comparative Example 1; for distribution after tail vein administration: mice, in vivo imaging (FIG. 1)
Method: The tail of each mouse was gently wiped with an alcohol cotton ball, and 1 µg of an LNP-mRNA drug was injected via the tail vein using an insulin syringe. Twenty-four hours after the tail vein administration, the mouse was intraperitoneally injected with 10% chloral hydrate (anesthetized according to the mouse body weight, 50-60 µL/20 g). After the mouse was anesthetized, 150 µL of a prepared luminescent substrate (luminescent substrate concentration: 15 mg/mL, Cat. No. 2109GR001, brand: biofroxx) was intraperitoneally injected. Five minutes after the injection of the luminescent substrate into the mouse, the mouse was placed in a small animal in vivo imaging system. The corresponding luciferase channel was selected to capture an in vivo image of the mouse, and the image was saved. This procedure was repeated at other time points, and the exposure parameters should be kept consistent for comparison.

[3] = system: mRNA; test: mRNA in vitro transcription (IVT) yield with cap analog; assay type: biochemical; conditions: mRNA yield of IVT reaction, 37 °C 2 h, purified mRNA quantified by Nanodrop One
Method: as §1

Compound | Capping rate (%) [1] | distribution after tail vein administration [2] | protein expression levels in mice [2] | Yield (µg) in 20 µL system [3]
COC1C(O)C(n2c[n+](C)c3c(=O)[nH]c(N)nc32)OC1C1CC1P(=O)(O)OP(=O)(O)OP(=O)(O)OCC1OC(n2cnc3c(N)ncnc32)C(OC)C1OP(=O)(O)OCC1OC(n2cnc3c(=O)[nH]c(N)nc32)C(O)C1O (stereo not shown) [Compound 2] | 98.4% | mainly distributed in the liver | higher protein expression levels in mice compared to Comparative Example 1 | 117 µg
COCC1C(O)C(n2c[n+](C)c3c(=O)[nH]c(N)nc32)OC1C1CC1P(=O)(O)OP(=O)(O)OP(=O)(O)OCC1OC(n2cnc3c(N)ncnc32)C(OC)C1OP(=O)(O)OCC1OC(n2cnc3c(=O)[nH]c(N)nc32)C(O)C1O (stereo not shown) [Compound 5] | 96.3% |  |  | 110 µg
COC1C(OP(=O)(O)OCC2OC(n3cnc4c(=O)[nH]c(N)nc43)C(O)C2O)C(COP(=O)(O)OP(=O)(O)OP(=O)(O)C2CC2C2OC(n3c[n+](C)c4c(=O)[nH]c(N)nc43)C(O)C2CNC(C)=O)OC1n1cnc2c(N)ncnc21 (stereo not shown) [Compound 10] | 96.3% |  |  | 103 µg
CO[C@@H]1[C@H](OP(=O)(O)OC[C@H]2O[C@@H](n3cnc4c(=O)[nH]c(N)nc43)[C@H](O)[C@@H]2O)[C@@H](COP(O)(=S)OP(=O)(O)OP(=O)(O)C2CC2[C@H]2O[C@@H](n3c[n+](C)c4c(=O)[nH]c(N)nc43)[C@H](O)[C@@H]2O)O[C@H]1n1cnc2c(N)ncnc21 (stereo partly shown) [Compound 14] | 98.0% |  |  | 102 µg
CO[C@@H]1[C@H](OP(=O)(O)OC[C@H]2O[C@@H](n3cnc4c(=O)[nH]c(N)nc43)[C@H](O)[C@@H]2O)[C@@H](C2CC2P(=O)(O)OP(=O)(O)OP(=O)(O)OC[C@H]2O[C@@H](n3c[n+](C)c4c(=O)[nH]c(N)nc43)[C@H](O)[C@@H]2O)O[C@H]1n1cnc2c(N)ncnc21 (stereo partly shown) [Compound 21] | 97.1% |  |  | 99 µg
CO[C@@H]1[C@H](OP(=O)(O)C2CC2[C@H]2O[C@@H](n3cnc4c(=O)[nH]c(N)nc43)[C@H](O)[C@@H]2O)[C@@H](COP(=O)(O)OP(=O)(O)OP(=O)(O)OC[C@H]2O[C@@H](n3c[n+](C)c4c(=O)[nH]c(N)nc43)[C@H](O)[C@@H]2O)O[C@H]1n1cnc2c(N)ncnc21 (stereo partly shown) [Compound 22] | 96.0% |  |  | 115 µg
CO[C@@H]1[C@H](OP(=O)(O)OC[C@H]2O[C@@H](n3cnc4c(=O)[nH]c(N)nc43)[C@H](O)[C@@H]2O)[C@@H](COP(=O)(O)OP(=O)(O)OP(=O)(O)OC2([C@H]3O[C@@H](n4c[n+](C)c5c(=O)[nH]c(N)nc54)[C@H](O)[C@@H]3O)CC2)O[C@H]1n1cnc2c(N)ncnc21 [Compound 31] | 98.5% | mainly distributed in the liver | higher protein expression levels in mice compared to Comparative Example 1 | 112 µg

Now from value to compound, other results behind:

Capping rate (%) [1] | distribution after tail vein administration [2] | Compound | protein expression levels in mice [2] | Yield (µg) in 20 µL system [3]
99.1% | mainly distributed in the liver | COC1C(OP(=O)(O)OCC2OC(n3cnc4c(=O)[nH]c(N)nc43)C(O)C2O)C(COP(=O)(O)OP(=O)(O)OP(=O)(O)C2CC2C2OC(n3c[n+](C)c4c(=O)[nH]c(N)nc43)C(O)C2O)OC1n1cnc2c(N)ncnc21 (stereo not shown) [Compound 1] | higher protein expression levels in mice compared to Comparative Example 1 | 114 µg
94.5% |  | COC1C(OP(=O)(O)OCC2OC(n3cnc4c(=O)[nH]c(N)nc43)C(O)C2O)C(COP(=O)(O)OP(=O)(O)OP(=O)(O)C2CC2C2OC(n3c[n+](C)c4c(=O)[nH]c(N)nc43)C(F)C2O)OC1n1cnc2c(N)ncnc21 (stereo not shown) [Compound 9] |  | 98 µg
98.9% | mainly distributed in the liver | CO[C@@H]1[C@H](OP(=O)(O)OC[C@H]2O[C@@H](n3cnc4c(=O)[nH]c(N)nc43)[C@H](O)[C@@H]2O)[C@@H](COP(=O)(O)OP(=O)(O)OP(=O)(O)OC2([C@H]3O[C@@H](n4c[n+](C)c5c(=O)[nH]c(N)nc54)[C@H](O)[C@@H]3OC)CC2)O[C@H]1n1cnc2c(N)ncnc21 [Compound 32] | higher protein expression levels in mice compared to Comparative Example 1 | 116 µg
96.1% | mainly distributed in the liver | CO[C@@H]1[C@H](OP(=O)(O)OC[C@H]2O[C@@H](n3cnc4c(=O)[nH]c(N)nc43)[C@H](O)[C@@H]2O)[C@@H](COP(=O)(O)OP(=O)(O)OP(=O)(O)OC[C@H]2O[C@@H](n3c[n+](C)c4c(=O)[nH]c(N)nc43)[C@H](O)[C@@H]2O)O[C@H]1n1cnc2c(N)ncnc21 [Compound 43, reference compound] |  | 105 µg

Reference: EP4768492A1, “CAPPING COMPOUND, AND APPLICATION THEREOF IN MRNA CAPPING” (Jiangsu Synthgene Biotechnology Co., Ltd., priority 2023, dated 2025)
